The target of one assay is T1, NA re-uptake (Rattus norvegicus, UniProt Q63380).
T1 construct: synaptosomes are freshly isolated from rat brain areas; from tissue; host or cells: rat brain synaptosomes (P2 fraction), hypothalamus
The assay is described as follows: Inhibition of NA re-uptake in rat brain synaptosomes (P2 fraction, hypothalamus). In kind it is biochemical. The note with it: for inhibition at 10 µM: 10 μmol/l. The text has this: (§1) a) Investigations of the Inhibition of the Re-uptake of 5-HT and NA
(§2) In order to be able to carry out these in vitro studies, synaptosomes are freshly isolated from rat brain areas. […] These vesicular particles are isolated from the hypothalamus for the NA re-uptake and from the medulla +pons region of male rat brains for the 5-HT re-uptake.
(§3) The IC50 values were obtained with the aid of the “Figure P” computer program (version 6.0, Biosoft, Cambridge, England). […] The “Ligand” computer program (version 4, Biosoft, England) was used to obtain KD values.

The target in the next assay is T2, 5-HT re-uptake (Rattus norvegicus, UniProt P31652).
T2 construct: synaptosomes are freshly isolated from rat brain areas; from tissue; host or cells: rat brain synaptosomes (P2 fraction), medulla + pons region, male rats
The assay can be described thus: Inhibition of 5-HT re-uptake in rat brain synaptosomes (P2 fraction, medulla + pons). The format is biochemical. To be noted: for inhibition at 10 µM: 10 μmol/l.
Excerpt: as §1, §2, §3

A further assay relates to mice. The assay is described as follows: Formalin test in mice (analgesic action, chronic pain component). The format is in vivo. The note with it: for Inhibition of the nociceptive behaviour versus control; % inhibition: mice; for ED50: Mus musculus, iv, read-out: Inhibition of the nociceptive behaviour versus control, ED50 value. The method, then: b) Investigations of the Analgesic Actions in the Formalin Test in Mice
The formalin test (Dubuisson, D. and Dennis, S. G., 1977, Pain, 4, 161-174) represents a model of acute and chronic pain. The chronic pain component was evaluated in the investigations described here.
A biphase nociceptive reaction which is recorded by observing three behaviour patterns which can be clearly differentiated from one another is induced in freely mobile test animals by a single formalin injection into the dorsal side of a hind paw.
Formalin is administered subcutaneously into the dorsal side of the right hind paw of each animal in a volume of 20 μl and a concentration of 1%.
The specific changes in behaviour which differ from the normal behaviour (score 0), such as raising (score 1) and shaking the paw (score 2) and biting and licking reactions (score 3), are observed and recorded continuously at component intervals of 3 min for up to 60 min after the administration of formalin. The changes in behaviour are weighted in different ways (score 0-3) and a pain rate (PR) is calculated using the following formula: PR=[(T0×0)+(T1×1)+(T2×2)+(T3×3)]/180.
The group size is 10 animals (n=10).
On the basis of the PR calculations, the action of the substance was determined as the change from a control in percent. The ED50 was determined by means of regression analysis.

Structures can show the parent of a compound that is named as a salt. Where two headings read alike, the source gives them in different places.

As a reminder, the inhibition is the relative decrease from the control value, in per cent.

T1 sequence (Q63380 1-617): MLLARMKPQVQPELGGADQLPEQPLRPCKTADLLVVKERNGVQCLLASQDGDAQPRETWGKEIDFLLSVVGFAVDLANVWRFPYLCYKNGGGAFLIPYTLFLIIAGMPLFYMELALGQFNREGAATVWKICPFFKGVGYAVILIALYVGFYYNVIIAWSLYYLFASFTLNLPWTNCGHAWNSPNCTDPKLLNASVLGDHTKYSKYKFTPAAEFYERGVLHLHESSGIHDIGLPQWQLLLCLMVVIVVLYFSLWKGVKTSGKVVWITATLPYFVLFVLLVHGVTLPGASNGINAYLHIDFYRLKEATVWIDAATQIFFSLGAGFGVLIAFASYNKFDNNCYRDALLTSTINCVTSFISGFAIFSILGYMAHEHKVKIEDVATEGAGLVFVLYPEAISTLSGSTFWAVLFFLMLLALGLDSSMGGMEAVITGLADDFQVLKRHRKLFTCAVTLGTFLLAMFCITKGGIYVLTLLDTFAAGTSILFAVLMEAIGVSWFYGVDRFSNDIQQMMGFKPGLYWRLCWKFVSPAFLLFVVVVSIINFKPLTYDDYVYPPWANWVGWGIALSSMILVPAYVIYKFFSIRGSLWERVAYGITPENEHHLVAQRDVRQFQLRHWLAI
T2 sequence (P31652 whole entry): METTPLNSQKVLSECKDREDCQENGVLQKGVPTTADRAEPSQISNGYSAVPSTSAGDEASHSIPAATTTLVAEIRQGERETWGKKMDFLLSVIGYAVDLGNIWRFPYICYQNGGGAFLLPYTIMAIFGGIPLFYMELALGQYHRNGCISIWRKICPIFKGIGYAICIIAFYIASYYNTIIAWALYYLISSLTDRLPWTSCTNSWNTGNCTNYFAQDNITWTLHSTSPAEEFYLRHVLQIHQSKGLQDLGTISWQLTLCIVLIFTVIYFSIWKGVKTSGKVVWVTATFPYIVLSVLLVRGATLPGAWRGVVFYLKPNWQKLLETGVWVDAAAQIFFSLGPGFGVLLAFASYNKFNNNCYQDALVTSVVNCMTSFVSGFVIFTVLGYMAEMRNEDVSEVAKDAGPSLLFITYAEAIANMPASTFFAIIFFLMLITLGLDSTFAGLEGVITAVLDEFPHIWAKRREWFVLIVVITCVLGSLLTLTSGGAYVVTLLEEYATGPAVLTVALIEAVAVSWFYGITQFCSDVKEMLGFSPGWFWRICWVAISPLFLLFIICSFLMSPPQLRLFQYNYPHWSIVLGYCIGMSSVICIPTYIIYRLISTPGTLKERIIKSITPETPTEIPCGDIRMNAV

`CN(C)CC1CCCCCC1(Cl)c1ccc(Cl)nc1` (stereo not drawn) [Example 13, [2-Chloro-2-(6-chloro-pyridin-3-yl)-cycloheptylmethyl]-dimethyl-amine hydrochloride]: the results for the inhibition at 10 µM at NA re-uptake and on 5-HT re-uptake were 75% and 38%, respectively.
For `CN(C)CC1=C(c2ccncc2)CCCCC1` [Example 38, Dimethyl-(2-pyridin-4-yl-cyclohept-1-enylmethyl)-amine hydrochloride], in that order: 73% and 76%.
Turning to `CN(C)CC1=C(c2cccnc2)CCC1.Cl` [Example 28, Dimethyl-(2-pyridin-3-yl-cyclopent-1-enylmethyl)-amine hydrochloride], the “Inhibition of the nociceptive behaviour versus control; % inhibition” value (“Inhibition … % inhibition” below) with mice (10 mg/kg i.v.) turned out to be 92.6%. For the same compound, the results for the inhibition at 10 µM against NA re-uptake and on 5-HT re-uptake were 29% and 83%, respectively.
As to `CN(C)CC1CCCCC1(Cl)c1ccc(Cl)nc1` (stereo not drawn) [Example 15, [2-Chloro-2-(6-chloro-pyridin-3-yl)-cyclohexylmethyl]-dimethyl-amine hydrochloride], the inhibition at 10 µM was found to be 53% on NA re-uptake and 51% on 5-HT re-uptake.
Take `CN(C)CC1CCC=C1c1cccnc1` (stereo not drawn) [Example 29, Dimethyl-(2-pyridin-3-yl-cyclopent-2-enylmethyl)-amine hydrochloride]: the inhibition at 10 µM against NA re-uptake is 64%; at 5-HT re-uptake it was 69%.
As to `COc1cncc([C@@H]2CCCCCC[C@H]2CN(C)C)c1` (relative stereo) [Example 70, trans-[2-(5-Methoxy-pyridin-3-yl)-cyclooctylmethyl]-dimethyl-amine and the corresponding hydrochloride], the “NA re-uptake inhibition (10 μmol/l)” value at NA re-uptake is given as 52%. Also, the “5-HT re-uptake inhibition (10 μmol/l)” value at 5-HT re-uptake is 89%.
Consider `CN(C)CC1=C(c2cccnc2)CCCCC1.Cl` [Example 23, Dimethyl-(2-pyridin-3-yl-cyclohept-1-enylmethyl)-amine hydrochloride], for which the ED50 with mice was 2.44 mg/kg. In addition, the inhibition at 10 µM was found to be 50% against NA re-uptake and 86% at 5-HT re-uptake.
`COc1cncc(C2CCCCC2CN(C)C)c1` (stereo not drawn) [Example 62, [2-(5-Methoxy-pyridin-3-yl)-cyclohexylmethyl] -dimethyl-amine hydrochloride]: the figures for the inhibition at 10 µM against NA re-uptake and on 5-HT re-uptake were 13% and 77%, respectively.
As for `CN(C)C[C@@H]1CCCC[C@H]1c1cccnc1.Cl` (relative stereo) [Example 7, trans-Dimethyl-(2-pyridin-3-yl-cyclohexylmethyl)amine hydrochloride], the ED50 in the assay with mice is 2.55 mg/kg. Moreover, the inhibition at 10 µM at NA re-uptake was found to be 22%; on 5-HT re-uptake it was 95%.
As for `COc1cncc(C2=C(CN(C)C)CCCC2)c1` [Example 54, [2-(5-Methoxy-pyridin-3-yl)-cyclohex-1-enylmethyl]-dimethyl-amine hydrochloride], the inhibition at 10 µM against NA re-uptake was 17%; at 5-HT re-uptake it was 85%.
For the compound `CCCN(CCC)CC1=C(c2cccnc2)CCCC1.Cl` [Example 65, Dipropyl-(2-pyridin-3-yl-cyclohex-1-enylmethyl)-amine hydrochloride], the “Inhibition … % inhibition” value with mice (4.64 mg/kg i.v.) is recorded as −39.4%. Further, the inhibition at 10 µM on NA re-uptake was -8%; at 5-HT re-uptake, 54%.
Turning to `CN(C)CC1=C(c2cncc(O)c2)CCCC1` [Example 64, 5-(2-Dimethylaminomethyl-cyclohex-1-enyl)-pyridin-3-ol hydrochloride], the inhibition at 10 µM against NA re-uptake turned out to be 6%; at 5-HT re-uptake, 68%.
Take `CNCC1=C(c2cccnc2)CCCC1.Cl` [Example 2, Methyl-(2-pyridin-3-yl-cyclohex-1-enylmethyl)amine hydrochloride]: the “Inhibition … % inhibition” value with mice (21.5 mg/kg i.v.) was 88%. The inhibition at 10 µM worked out at 15% at NA re-uptake and 69% on 5-HT re-uptake.
As to `CN(C)C[C@@H]1CCCCC[C@@H]1c1cccnc1` (relative stereo) [Example 26, cis-Dimethyl-(2-pyridin-3-yl-cycloheptylmethyl)-amine hydrochloride], the values for the inhibition at 10 µM on NA re-uptake and at 5-HT re-uptake were 28% and 82%, respectively.
For `COc1cncc(C2CCCCCC2CN(C)C)c1` (stereo not drawn) [Example 60, [2-(5-Methoxy-pyridin-3-yl)-cycloheptylmethyl] -dimethyl-amine hydrochloride], in that order: 30% and 75%.
With `CN(C)CC1CCCCCC=C1c1ccc(Cl)nc1` (stereo not drawn) [Example 71, [2-(6-Chloro-pyridin-3-yl)-cyclooct-2-enylmethyl] -dimethyl-amine hydrochloride], the figures for the inhibition at 10 µM against NA re-uptake and at 5-HT re-uptake were 77% and 74%, respectively.
For `CN(C)CC1CCCCC=C1c1ccc(Cl)nc1` (stereo not drawn) [Example 48, [2-(6-chloro-pyridin-3-yl)-cyclohept-2-enylmethyl]-dimethyl-amine hydrochloride] the same measures were 82% and 81%.
For `CN(C)CC1CCCCC1(Cl)c1cccnc1` (stereo not drawn) [Example 14, (2-Chloro-2-pyridin-3-yl-cyclohexylmethyl)-dimethyl-amine hydrochloride], the inhibition at 10 µM against NA re-uptake is 27%; at 5-HT re-uptake it was 73%.
Take `CN(C)C[C@@H]1CSCC[C@@]1(O)c1cccnc1.Cl` (relative stereo) [Example 50, cis-3-Dimethylaminomethyl-4-pyridin-3-yl-tetrahydrothiopyran-4-ol hydrochloride]: the “Inhibition … % inhibition” value in the assay with mice (21.5 mg/kg i.v.) came out at 37.0%. Besides, the “NA re-uptake inhibition (10 μmol/l)” value at NA re-uptake amounted to 29%. Besides, on 5-HT re-uptake, the “5-HT re-uptake inhibition (10 μmol/l)” value came to 54%.
Turning to `CN(C)CC1=C(c2ccc(Cl)nc2)CCCC1.Cl` [Example 68, [2-(6-Chloro-pyridin-3-yl)-cyclohex-1-enylmethyl]-dimethyl-amine hydrochloride], the “NA re-uptake inhibition (10 μmol/l)” value at NA re-uptake (hydrochloride) was 62%. The “5-HT re-uptake inhibition (10 μmol/l)” value at 5-HT re-uptake (hydrochloride) is given as 67%.
As for `COc1cncc([C@H]2CCCCCC[C@H]2CN(C)C)c1` (relative stereo) [Example 72, cis-[2-(5-Methoxy-pyridin-3-yl)-cyclooctylmethyl] -dimethyl-amine hydrochloride], the inhibition at 10 µM was determined as 53% on NA re-uptake and 60% on 5-HT re-uptake.
Regarding `COc1cncc(C2=CCCCCCC2CN(C)C)c1` (stereo not drawn) [Example 73, [2-(5-Methoxy-pyridin-3-yl)-cyclooct-2-enylmethyl] -dimethyl-amine hydrochloride], the values for the inhibition at 10 µM against NA re-uptake and on 5-HT re-uptake were 55% and 89%, respectively.
On to `CN(C)C[C@@H]1CCCC[C@@H]1c1cccnc1` (relative stereo) [Example 6, cis-Dimethyl-(2-pyridin-3-yl-cyclohexylmethyl)amine hydrochloride], for which the inhibition at 10 µM against NA re-uptake stood at 25%; on 5-HT re-uptake, 94%.
Regarding `CN(CC1=C(c2cccnc2)CCCC1)Cc1ccccc1.Cl` [Example 10, Benzylmethyl-(2-pyridin-3-yl-cyclohex-1-enylmethyl)amine hydrochloride], in the assay on mice (10 mg/kg i.v.), the “Inhibition … % inhibition” value is recorded as 66.3%.
For the compound `CN(C)C[C@@H]1CCCCC[C@H]1c1cccnc1` (relative stereo) [Example 27, trans-Dimethyl-(2-pyridin-3-yl-cycloheptylmethyl)-amine hydrochloride], the inhibition at 10 µM on NA re-uptake stood at 54%; at 5-HT re-uptake, 88%.
As to `CN(C)CC1CCCCCC=C1c1cccnc1` (stereo not drawn) [Example 33, Dimethyl-(2-pyridin-3-yl-cyclooct-2-enylmethyl)-amine hydrochloride], the inhibition at 10 µM against NA re-uptake is 50%; on 5-HT re-uptake, 74%.
For `COc1cncc(C2=CCCCC2CN(C)C)c1` (stereo not drawn) [Example 55, [2-(5-Methoxy-pyridin-3-yl)-cyclohex-2-enylmethyl]-dimethyl-amine hydrochloride] the same measures were 34% and 67%.
For `CN(C)CC1=C(c2ccc(Cl)nc2)CCCC1` [Example 49, [2-(6-Chloro-pyridin-3-yl)-cyclohex-1-enylmethyl]-dimethyl-amine hydrochloride], in that order: 67% and 55%.
For `COc1cncc(C2=C(CN(C)C)CCCCCC2)c1` [Example 74, [2-(5-Methoxy-pyridin-3-yl)-cyclooct-1-enylmethyl] -dimethyl-amine hydrochloride] the same measures were 56% and 72%.

The values are drawn from patent publication US7384961B2, “Saturated and unsaturated heteroarylcycloalkylmethyl amines as anti-depressants” (priority 2002, dated 2008).
